Measurements taken from PubChem BioAssay AID248 (DTP/NCI, 2004).
Where “and” joins values, the source holds several entries; their conditions need not be identical. Identical values can stand only once. Inconclusive results and toxic doses are left out. Rule as the data show it: active = T/C of 150% or more; inactive = T/C below 125%.

System: L1210 leukemia ip in BDF1 mice, survival T/C
Test: NCI In Vivo Anticancer Drug Screen. Data for tumor model L1210 Leukemia (intraperitoneal) in B6D2F1 (BDF1) mice
Settings: higher = longer survival
Procedure, shortened: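 In this screen, tumor-bearing mice given compound are compared to those given vehicle, and their survival values are reported as a treated-to-control quotient.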

Measured: T/C

CC[C@](O)(C(=O)O)c1cc2n(c(=O)c1CO)Cc1cc3ccccc3nc1-2
inactive: endpoint: mean survival time, dose: 0.12 mg/kg/injection, schedule: Q#A X Z (ip), vehicle: saline 106 % of control | endpoint: mean survival time, dose: 0.18 mg/kg/injection, schedule: Q01DX009 (ip), vehicle: saline 105 % of control and 108 % of control | endpoint: mean survival time, dose: 0.25 mg/kg/injection, schedule: Q01DX006 (iv), vehicle: saline 107 % of control | endpoint: mean survival time, dose: 0.25 mg/kg/injection, schedule: Q01DX009 (ip), vehicle: saline 98 % of control | endpoint: mean survival time, dose: 0.25 mg/kg/injection, schedule: Q01DX010 (ip), vehicle: saline 117 % of control | endpoint: mean survival time, dose: 0.25 mg/kg/injection, schedule: Q01DX Z (im), vehicle: saline 107 % of control | endpoint: mean survival time, dose: 0.25 mg/kg/injection, schedule: Q01DX Z (sc), vehicle: saline 107 % of control | endpoint: mean survival time, dose: 0.25 mg/kg/injection, schedule: Q## X Z (ip), vehicle: saline 97 % of control | endpoint: mean survival time, dose: 0.25 mg/kg/injection, schedule: Q#A X Z (ip), vehicle: saline 114 % of control | endpoint: mean survival time, dose: 0.35 mg/kg/injection, schedule: Q01DX009 (ip), vehicle: saline 106 % of control and 113 % of control | endpoint: mean survival time, dose: 0.5 mg/kg/injection, schedule: Q01DX006 (iv), vehicle: saline 103 % of control | endpoint: mean survival time, dose: 0.5 mg/kg/injection, schedule: Q01DX009 (ip), vehicle: saline 104 % of control and 112 % of control | endpoint: mean survival time, dose: 0.5 mg/kg/injection, schedule: Q01DX009 (oral), vehicle: water 97 % of control | endpoint: mean survival time, dose: 0.5 mg/kg/injection, schedule: Q01DX Z (im), vehicle: saline 108 % of control | endpoint: mean survival time, dose: 0.5 mg/kg/injection, schedule: Q01DX Z (ip), vehicle: saline 122 % of control | endpoint: mean survival time, dose: 0.5 mg/kg/injection, schedule: Q01DX Z (oral), vehicle: saline 105 % of control | endpoint: mean survival time, dose: 0.5 mg/kg/injection, schedule: Q01DX Z (sc), vehicle: saline 107 % of control | endpoint: mean survival time, dose: 0.5 mg/kg/injection, schedule: Q## X Z (ip), vehicle: saline 103 % of control | endpoint: mean survival time, dose: 0.7 mg/kg/injection, schedule: Q01DX009 (ip), vehicle: saline 106 % of control and 108 % of control | endpoint: mean survival time, dose: 0.75 mg/kg/injection, schedule: Q03DX Z (ip), vehicle: saline 101 % of control | endpoint: mean survival time, dose: 1.0 mg/kg/injection, schedule: Q01DX006 (iv), vehicle: saline 111 % of control | endpoint: mean survival time, dose: 1.0 mg/kg/injection, schedule: Q01DX009 (ip), vehicle: saline 111 % of control and 112 % of control | endpoint: mean survival time, dose: 1.0 mg/kg/injection, schedule: Q01DX009 (oral), vehicle: water 113 % of control | endpoint: mean survival time, dose: 1.0 mg/kg/injection, schedule: Q01DX Z (im), vehicle: saline 113 % of control | endpoint: mean survival time, dose: 1.0 mg/kg/injection, schedule: Q01DX Z (oral), vehicle: saline 117 % of control | endpoint: mean survival time, dose: 1.0 mg/kg/injection, schedule: Q01DX Z (sc), vehicle: saline 113 % of control | endpoint: mean survival time, dose: 1.0 mg/kg/injection, schedule: Q## X Z (ip), vehicle: saline 114 % of control | endpoint: mean survival time, dose: 1.3 mg/kg/injection, schedule: Q## X008 (ip), vehicle: saline 102 % of control | endpoint: mean survival time, dose: 1.5 mg/kg/injection, schedule: Q03DX Z (ip), vehicle: saline 109 % of control | endpoint: mean survival time, dose: 2.0 mg/kg/injection, schedule: Q01DX001 (ip), vehicle: saline 106 % of control and 113 % of control (2×) | endpoint: mean survival time, dose: 2.0 mg/kg/injection, schedule: Q01DX006 (iv), vehicle: saline 114 % of control and 122 % of control | endpoint: mean survival time, dose: 2.0 mg/kg/injection, schedule: Q01DX010 (ip), vehicle: saline 110 % of control | endpoint: mean survival time, dose: 2.0 mg/kg/injection, schedule: Q01DX010 (oral), vehicle: saline 97 % of control | endpoint: mean survival time, dose: 2.0 mg/kg/injection, schedule: Q01DX Z (im), vehicle: saline 116 % of control | endpoint: mean survival time, dose: 2.0 mg/kg/injection, schedule: Q01DX Z (sc), vehicle: saline 114 % of control and 120 % of control | endpoint: mean survival time, dose: 2.0 mg/kg/injection, schedule: Q07DX Z (ip), vehicle: saline 109 % of control | endpoint: mean survival time, dose: 2.5 mg/kg/injection, schedule: Q01DX001 (oral), vehicle: water 111 % of control | endpoint: mean survival time, dose: 2.5 mg/kg/injection, schedule: Q04DX002 (ip), vehicle: saline 100 % of control and 108 % of control | endpoint: mean survival time, dose: 2.5 mg/kg/injection, schedule: Q04DX003 (ip), vehicle: saline 110 % of control | endpoint: mean survival time, dose: 2.5 mg/kg/injection, schedule: Q## X003 (ip), vehicle: saline 105 % of control and 109 % of control | endpoint: mean survival time, dose: 2.5 mg/kg/injection, schedule: Q## X003 (oral), vehicle: saline 107 % of control | endpoint: mean survival time, dose: 2.5 mg/kg/injection, schedule: Q## X003 (oral), vehicle: water 107 % of control | endpoint: mean survival time, dose: 2.5 mg/kg/injection, schedule: Q## X008 (ip), vehicle: saline 98 % of control | endpoint: mean survival time, dose: 2.6 mg/kg/injection, schedule: Q## X024 (ip), vehicle: saline 101 % of control | endpoint: mean survival time, dose: 2.6 mg/kg/injection, schedule: Q## X024 (oral), vehicle: water 100 % of control | endpoint: mean survival time, dose: 3.0 mg/kg/injection, schedule: Q01DX Z (sc), vehicle: saline 120 % of control | endpoint: mean survival time, dose: 3.0 mg/kg/injection, schedule: Q03DX Z (ip), vehicle: saline 118 % of control | endpoint: mean survival time, dose: 4.0 mg/kg/injection, schedule: Q01DX001 (ip), vehicle: saline 105 % of control and 110 % of control and 116 % of control | endpoint: mean survival time, dose: 4.0 mg/kg/injection, schedule: Q01DX009 (oral), vehicle: water 120 % of control | endpoint: mean survival time, dose: 4.0 mg/kg/injection, schedule: Q01DX Z (ip), vehicle: saline 97 % of control and 116 % of control | endpoint: mean survival time, dose: 4.0 mg/kg/injection, schedule: Q01DX Z (oral), vehicle: saline 101 % of control | endpoint: mean survival time, dose: 4.5 mg/kg/injection, schedule: Q01DX006 (iv), vehicle: saline 122 % of control | endpoint: mean survival time, dose: 4.5 mg/kg/injection, schedule: Q01DX Z (im), vehicle: saline 93 % of control | endpoint: mean survival time, dose: 5.0 mg/kg/injection, schedule: Q01DX001 (oral), vehicle: water 115 % of control | endpoint: mean survival time, dose: 5.0 mg/kg/injection, schedule: Q04DX002 (ip), vehicle: saline 110 % of control and 113 % of control | endpoint: mean survival time, dose: 5.0 mg/kg/injection, schedule: Q04DX003 (ip), vehicle: saline 116 % of control | endpoint: mean survival time, dose: 5.0 mg/kg/injection, schedule: Q04DX003 (ip), vehicle: water 118 % of control and 120 % of control | endpoint: mean survival time, dose: 5.0 mg/kg/injection, schedule: Q## X003 (ip), vehicle: saline 114 % of control | endpoint: mean survival time, dose: 5.0 mg/kg/injection, schedule: Q## X003 (oral), vehicle: water 121 % of control | endpoint: mean survival time, dose: 5.0 mg/kg/injection, schedule: Q## X008 (ip), vehicle: saline 105 % of control | endpoint: mean survival time, dose: 5.0 mg/kg/injection, schedule: Q## X024 (ip), vehicle: saline 120 % of control | endpoint: mean survival time, dose: 6.0 mg/kg/injection, schedule: Q01DX001 (ip), vehicle: saline 110 % of control | endpoint: mean survival time, dose: 6.5 mg/kg/injection, schedule: Q01DX006 (iv), vehicle: saline 112 % of control | endpoint: mean survival time, dose: 6.5 mg/kg/injection, schedule: Q01DX Z (sc), vehicle: saline 105 % of control | endpoint: mean survival time, dose: 8.0 mg/kg/injection, schedule: Q01DX001 (ip), vehicle: saline 105 % of control and 115 % of control | endpoint: mean survival time, dose: 8.0 mg/kg/injection, schedule: Q01DX009 (ip), vehicle: saline 120 % of control | endpoint: mean survival time, dose: 10.0 mg/kg/injection, schedule: Q01DX001 (ip), vehicle: saline 112 % of control | endpoint: mean survival time, dose: 10.0 mg/kg/injection, schedule: Q## X008 (ip), vehicle: saline 117 % of control | endpoint: mean survival time, dose: 10.0 mg/kg/injection, schedule: Q## X008 (oral), vehicle: water 121 % of control | endpoint: mean survival time, dose: 19.0 mg/kg/injection, schedule: Q03DX Z (ip), vehicle: saline 121 % of control | endpoint: mean survival time, dose: 50.0 mg/kg/injection, schedule: Q04DX003 (ip), vehicle: saline 105 % of control | endpoint: mean survival time, dose: 80.0 mg/kg/injection, schedule: Q04DX003 (ip), vehicle: saline 114 % of control | endpoint: mean survival time, dose: 160.0 mg/kg/injection, schedule: Q## X003 (ip), vehicle: saline 110 % of control | endpoint: mean survival time, dose: 125.0 micrograms/kg/injection, schedule: Q01DX Z (ip), vehicle: saline 111 % of control | endpoint: mean survival time, dose: 250.0 micrograms/kg/injection, schedule: Q01DX Z (ip), vehicle: saline 114 % of control | endpoint: median survival time, dose: 5.0 mg/kg/injection, schedule: Q04DX003 (ip), vehicle: saline 122 % of control | endpoint: median survival time, dose: 50.0 mg/kg/injection, schedule: Q01DX001 (ip), vehicle: saline 110 % of control and 119 % of control | endpoint: median survival time, dose: 83.3 mg/kg/injection, schedule: Q04DX003 (ip), vehicle: saline 110 % of control and 121 % of control | endpoint: median survival time, dose: 100.0 mg/kg/injection, schedule: Q04DX003 (ip), vehicle: saline 94 % of control and 116 % of control | endpoint: median survival time, dose: 148.0 mg/kg/injection, schedule: Q01DX001 (ip), vehicle: saline 115 % of control
